For one data set, the target named is T1, Mer kinase (Homo sapiens, UniProt Q12866).
T1 sequence (Q12866 21-999): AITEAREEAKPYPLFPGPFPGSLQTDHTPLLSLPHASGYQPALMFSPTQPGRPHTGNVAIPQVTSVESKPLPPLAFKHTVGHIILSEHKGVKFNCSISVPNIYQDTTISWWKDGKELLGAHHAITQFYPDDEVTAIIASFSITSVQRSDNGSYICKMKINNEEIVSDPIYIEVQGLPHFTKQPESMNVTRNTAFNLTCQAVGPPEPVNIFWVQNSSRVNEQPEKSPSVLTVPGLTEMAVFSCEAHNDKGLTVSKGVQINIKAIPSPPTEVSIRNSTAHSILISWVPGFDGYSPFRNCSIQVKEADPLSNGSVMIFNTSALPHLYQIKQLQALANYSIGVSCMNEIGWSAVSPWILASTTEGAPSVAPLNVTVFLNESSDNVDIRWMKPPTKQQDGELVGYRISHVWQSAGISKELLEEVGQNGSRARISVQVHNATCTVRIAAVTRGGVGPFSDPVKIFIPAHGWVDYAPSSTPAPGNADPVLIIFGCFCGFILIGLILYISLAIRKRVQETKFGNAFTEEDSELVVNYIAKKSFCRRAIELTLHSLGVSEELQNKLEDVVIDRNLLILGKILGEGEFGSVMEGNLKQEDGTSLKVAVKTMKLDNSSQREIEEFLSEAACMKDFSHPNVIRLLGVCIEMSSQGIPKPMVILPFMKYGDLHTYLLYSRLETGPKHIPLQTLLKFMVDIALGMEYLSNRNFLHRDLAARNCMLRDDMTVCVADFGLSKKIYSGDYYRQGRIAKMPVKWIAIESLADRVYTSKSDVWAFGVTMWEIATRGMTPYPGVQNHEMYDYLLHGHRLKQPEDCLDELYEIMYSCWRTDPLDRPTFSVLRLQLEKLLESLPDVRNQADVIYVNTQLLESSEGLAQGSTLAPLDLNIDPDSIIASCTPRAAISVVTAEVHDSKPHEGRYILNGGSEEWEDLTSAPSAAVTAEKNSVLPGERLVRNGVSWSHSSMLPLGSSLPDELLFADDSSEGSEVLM
In words: Mer kinase inhibitory activity assay (in vitro). The format is biochemical. Particulars: ATP 30 uM, enzyme 0.25 nM; means from three independent experiments. The protocol:
The in vitro inhibition assays of all final compounds against Mer and c-Met kinase were performed by Shanghai Bioduro Biological Technology Co., Ltd. (Shanghai, China). We prepared 1× buffer: HEPES 50 mM, MgCl2 10 mM, EGTA 1 mM, NP-40 0.0001%, DTT 2 mM; compound dilution with DMSO. For test compounds, a 100 × final concentration solution was prepared. About 100 nL compounds were transferred to a 384-well plate by using the automated liquid handler. The final DMSO% in the assay is 1%. Enzyme stock solutions were diluted with 1× assay buffer to a concentration of 0.5 nM to make a 2× working solution. […] Substrate solutions were diluted with 1× assay buffer. About 5 μL mix or buffer was added manually to the assay plate (ATP final 30 uM and TK-Sub-Biotin final 2 uM) using a multichannel pipette, spun down at 1000 rpm, and centrifuged for 30 s. After incubating at 30 °C for 60 min, 10 μL of detection solution was added to each well of the assay, mixed briefly with a centrifuge, and equilibrated for another 60 min. The luminescence was recorded using Envision.

Data set [1] can be described thus: Liver microsome stability assay. The format is in vitro ADME. Particulars: pH 7.4, human liver microsomes 0.2 mg/mL, test compound 1 μM, NADPH. How it is done:
Stock solution (10 mM) of each of test compound was prepared in DMSO. The stock solution for each compound was then diluted into 200 μM with acetonitrile. Incubation mixtures were prepared in a total volume of 200 μL with final component concentrations as follows: 0.1 M PBS (pH 7.4), NADPH (2 mM), liver microsomes (0.2 mg/mL), and test compound (1 μM) or positive control. NAPDH was added after a 5 min preincubation of all other components at 37 °C, then pipette-mixed to achieve a homogenous suspension and immediately transferred 20 μL of the incubate as a 0 min sample to wells in a “Quenching” plate, followed by pipette-mixing. At 5, 15, 30, and 60 min, we pipette-mixed the incubate and serially transferred samples of 20 μL of the incubate per time point to wells in a separate “Quenching” plate, followed by pipette-mixing. In “Quenching” plates, 200 μL of acetonitrile was added with IS. The 96 wells were centrifuged at 4000 rpm for 10 min. Then 50 μL of supernatant was mixed with 50 μL of ddH2O and injected into the LC-MS/MS system for analysis.

In the next data set the test system is HepG2 cells. In words: Antiproliferation assay (CCK-8), HepG2. The data set is classed as cell-based. How it is done: (§1) The antiproliferative activities of the compounds against HepG2, MDA-MB-231, and HCT116 cell lines were tested by the standard CCK-8 method. Cell viability was measured by Cell Counting Kit-8 (Meilunbio, Dalian, China) according to the manufacturer’s instructions. Briefly, cancer cells were seeded into 96-well plates at a density of 2.5 × 10^3 cells per well. […] Subsequently, CCK-8 solution was added into each well and incubated for an additional 2 h. The absorbance at 450 nm was determined in each well using the BioTek Synergy HTX microplate reader. The assay was performed in triplicate, and each experiment was repeated three times.

The subject of the next data set is MDA-MB-231 cells. In words: Antiproliferation assay (CCK-8), MDA-MB-231. The format is cell-based. How it is done: as §1
For data set [2], the system named is HCT116 cells. The data set is described as follows: Antiproliferation assay (CCK-8), HCT116. The data set is classed as cell-based. The protocol:
Cell viability was measured by Cell Counting Kit-8 (Meilunbio, Dalian, China) according to the manufacturer’s instructions. Briefly, cancer cells were seeded into 96-well plates at a density of 2.5 × 10^3 cells per well. […] Subsequently, CCK-8 solution was added into each well and incubated for an additional 2 h. The absorbance at 450 nm was determined in each well using the BioTek Synergy HTX microplate reader. The assay was performed in triplicate, and each experiment was repeated three times.

For another data set, the target named is T2, hERG potassium currents (Homo sapiens, UniProt Q12809).
T2 construct: expressed in transfected cells
In words: hERG potassium currents assay (automated whole-cell patch clamp, CHO cells). The format is cell-based. Particulars: CHO cells stably expressing hERG, QPatch. How it is done: CHO cells stably expressing the transcript of hERG were investigated by the automated whole-cell patch clamp technique, using the QPatch system (Sophion, Ballerup, Denmark). The detailed procedures of the hERG potassium currents assay were described in our previous work. Each cell was received from six escalating concentrations. Each concentration was tested on at least three cells. The reference compound cisapride was applied at the end of the test compound addition.

The test system of data set [3] is HCT116 cells. The data set is described as follows: TUNEL apoptosis assay. Particulars: HCT116, 48 h treatment. The data set is classed as cell-based. How it is done: The number of TUNEL-positive cells was counted from 5 non-overlap random fields per group; DAPI (blue). Data are representative of three independent experiments.
The One Step TUNEL Apoptosis Assay Kit (Meilunbio, Dalian, China) was used for studying apoptosis in a dose-dependent manner. HCT116 cells (1.5 × 10^4 cells/well) were cultured in TC-treated glass coverslip-containing plates. […] Next, adhered cells were fixed with 4% paraformaldehyde and permeabilized with 0.3% Triton-X-100. TUNEL staining was performed according to the manufacturer’s instructions. The nuclei of cells were counterstained with the DAPI reagent. Images were taken using an Olympus fluorescence microscope. The ED50 for 18c was calculated with the program GraphPad PRISM 9.5. The assay was performed in triplicate, and each experiment was repeated three times.

The test system of data set [4] is HCT116 cells. The data set is described as follows: Transwell migration assay. The format is cell-based. Particulars: 24 h. The protocol:
Transwell migration assays were performed using Transwell® chamber inserts (Costar, Cambridge, MA, USA) with a porous polycarbonate membrane (8 μM pore size).
Transwell migration assays were performed using Transwell® chamber inserts (Costar, Cambridge, MA, USA) with a porous polycarbonate membrane ([…]). Briefly, 1.5 × 10^5 HCT116 cells were added in the top chamber with FBS-free culture media containing 0.2% BSA. A culture medium containing 15% FBS was added to the bottom chamber. […] After incubation for 24 h at 37 °C, the cells were fixed in methanol and stained with 0.1% crystal violet. The cells that had not migrated from the top surface of the filters were removed with cotton. Five randomly selected fields were captured by brightfield microscopy for each well. Migrated cells were quantitated by ImageJ (1.53c). Experiments were repeated at least three times in replicates.

Where [5] appears, read: ratio of IC50 values to cabozantinib.

The values that follow come from publication PMC10819570, “Design, Synthesis, and Biological Evaluation of 2-Substituted Aniline Pyrimidine Derivatives as Potent Dual Mer/c-Met Inhibitors” (Molecules, 2024).

Entries after “also recorded” stand apart in the source; their conditions may differ. A value given as a limit tells only on which side of the number the result lay.

T2 sequence (Q12809 whole entry): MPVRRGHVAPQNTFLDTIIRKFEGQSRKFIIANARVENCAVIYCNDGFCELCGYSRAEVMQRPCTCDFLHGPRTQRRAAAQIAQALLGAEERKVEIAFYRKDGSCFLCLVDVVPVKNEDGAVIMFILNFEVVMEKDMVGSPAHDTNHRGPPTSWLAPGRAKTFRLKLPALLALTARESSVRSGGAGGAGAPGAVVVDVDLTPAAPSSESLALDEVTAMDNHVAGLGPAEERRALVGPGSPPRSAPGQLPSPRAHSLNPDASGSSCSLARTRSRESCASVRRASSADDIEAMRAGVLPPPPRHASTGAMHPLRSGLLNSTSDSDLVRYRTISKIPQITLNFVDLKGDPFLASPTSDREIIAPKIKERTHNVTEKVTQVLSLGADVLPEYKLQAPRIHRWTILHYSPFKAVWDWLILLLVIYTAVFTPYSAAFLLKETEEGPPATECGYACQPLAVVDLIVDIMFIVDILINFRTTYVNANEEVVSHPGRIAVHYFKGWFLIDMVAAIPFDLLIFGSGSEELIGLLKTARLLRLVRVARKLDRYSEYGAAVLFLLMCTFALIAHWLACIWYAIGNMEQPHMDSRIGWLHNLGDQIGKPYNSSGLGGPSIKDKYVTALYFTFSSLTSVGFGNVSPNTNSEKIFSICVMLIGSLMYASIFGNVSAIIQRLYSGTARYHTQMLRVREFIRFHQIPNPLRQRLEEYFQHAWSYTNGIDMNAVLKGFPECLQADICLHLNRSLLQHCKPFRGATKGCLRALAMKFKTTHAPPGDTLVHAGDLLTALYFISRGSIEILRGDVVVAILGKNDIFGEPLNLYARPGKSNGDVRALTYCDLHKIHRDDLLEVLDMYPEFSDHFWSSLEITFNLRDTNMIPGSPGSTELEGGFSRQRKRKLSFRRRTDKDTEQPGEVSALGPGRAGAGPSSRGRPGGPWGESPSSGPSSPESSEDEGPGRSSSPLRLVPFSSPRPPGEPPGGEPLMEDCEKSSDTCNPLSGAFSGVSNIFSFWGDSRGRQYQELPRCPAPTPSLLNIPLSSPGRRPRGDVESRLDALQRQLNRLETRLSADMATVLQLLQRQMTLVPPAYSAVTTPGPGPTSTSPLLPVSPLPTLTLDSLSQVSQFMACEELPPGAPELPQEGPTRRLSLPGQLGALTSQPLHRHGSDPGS

Turning to `CN1CCN(CC(=O)Nc2ccc(Nc3nccc(Oc4ccc(NC(=O)C5(C(=O)Nc6ccc(F)cc6)CC5)cc4)n3)cc2)CC1` [Compound 18c], the IC50 on Mer kinase is 0.0185 ± 0.0023 µM; in the data set on HepG2 cells (Homo sapiens, HepG2, 72 h, read-out: IC50 antiproliferative HepG2), 6.63 µM; in the data set with MDA-MB-231 cells (Homo sapiens, MDA-MB-231, 72 h, read-out: IC50 antiproliferative MDA-MB0231), 8.9 µM; in the data set on HCT116 cells [2] (Homo sapiens, HCT-116, 72 h, read-out: IC50 antiproliferative HCT116), 4.95 µM; against hERG potassium currents, more than 40 µM. In addition, in data set [1] (read-out: CL Human), the microsomal CLint at 1 μM amounted to 60 µL/min/mg. The half-life at 1 μM in data set [1] (read-out: T1/2 Human) is 53.1 min. For the same molecule, the “Antiproliferative activity against HepG2, times lesser than cabozantinib” value with HepG2 cells (setting [5]) is on record as 3.8 times. In addition, in the data set with MDA-MB-231 cells (setting [5]), the “Antiproliferative activity against MDA-MB-231, times higher than cabozantinib” value is reported as 3.3 times. Besides, the “Antiproliferative activity against HCT116, times higher than cabozantinib” value with HCT116 cells [2] (setting [5]) came to 1.6 times. In addition, the “ED50 apoptosis (TUNEL-positive cells)” value with HCT116 cells [3] was found to be 10.07 µM. Moreover, the “Inhibition of HCT116 cell migration vs control” value in the data set with HCT116 cells [4] is recorded as “inhibited cell migration; also recorded: significantly inhibited”.
